Values of other authors in patent US20050058718A1, “Preparations for cigarette toxicity reduction, health enhancement, and addiction elimination” (priority 2003, published 2005).

Legend:
[1] = test system: leukoderma in their mouths and throats; conditions: 3 ppm selenium in drinking water
cancer cells = cancer cells external of the human body treated by selenium
[2] = 1300 people, 200 ug selenium daily for five years

In the case of `[Se]` [selenium], the “delay of cancer formation versus control group” value [1] is listed as “two more weeks”, the “reduction of large intestine and rectum cancer incidence” value (cancer incidence; [2]) is listed as 58% and the “reduction of lung cancer incidence” value (cancer incidence; [2]) is listed as 46%. The “reduction of prostate cancer incidence” value (cancer incidence; [2]) was 63%, the “more chance to survive when sick from cancer” value (cancer incidence; selenium takers sick from cancer) was 50% and the “decrease of carcinogenicity of cancer cells” value (cancer cells) was 60%.
